Broadly, the MIC is the lowest concentration found to suppress growth.

We go through 27 compounds from US7223759B2, “Antibacterial 3,5-diaminopiperidine-substituted aromatic and heteroaromatic compounds” (Anadys Pharmaceuticals, Inc., priority 2003, dated 2007).

Each structure is given as a SMILES string. Some results are limits rather than exact numbers.

One test has as its system Escherichia coli (ATCC25922) or Staphylococcus aureus (ATCC25923). Description: Antibacterial MIC, microdilution method in Mueller-Hinton medium. In kind it is cell-based. The following applies: Escherichia coli, 18 h, MIC in E. coli or S. aureus; two-fold serial dilutions 64 to 0.5 μg/ml in duplicate; 18 hours of incubation at 35° C.; read-out: Potency (MIC). The method in brief:
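Read after 18 h incubation at 35° C, MIC is the lowest compound level that blocked growth. Compounds were tested in duplicate over 64–0.5 μg/ml two-fold dilutions using Mueller-Hinton microdilution per NCCLS standard.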
For orientation: Dilution methods test growth across graded concentrations, often in twofold steps.
For `CC12CC[C@](C(=O)Nc3ccc(Nc4nc(N5C[C@H](N)C[C@H](N)C5)nc(N5C[C@H](N)C[C@H](N)C5)n4)cc3O)(OC1=O)C2(C)C` [(S)-4,7,7-Trimethyl-3-oxo-2-oxa-bicyclo[2.2.1]heptane-1-carboxylic acid {4-[4,6-bis-((3R,5S)-3,5-diamino-piperidin-1-yl)-[1,3,5]triazin-2-ylamino]-2-hydroxy-phenyl}-amide], the MIC is less than 64 µg/mL.
Regarding `Cl.N[C@@H]1C[C@H](N)CN(c2nc(Nc3ccc4c(c3)CCC4)nc(N3C[C@H](N)C[C@H](N)C3)n2)C1` [N-indan-5-yl-4,6-Bis-((3R,5S)-3,5-diamino-piperidin-1-yl)-[1,3,5]triazine-2-amine], the MIC was more than 64 µg/mL.
As to `COc1nc(Nc2ccc(N(Cc3ccccc3)S(=O)(=O)c3ccc(C)cc3)c(O)c2)nc(N2CCCCC2)n1.Cl` [N-Benzyl-N-{4-[4-((3R,5S)-3,5-diamino-piperidin-1-yl)-6-methoxy-[1,3,5]triazin-2-ylammino]-2-hydroxy-phenyl}-4-methyl-benzenesulfonamide], the MIC is less than 16 µg/mL.
Same read-out and setting: in the case of `N[C@@H]1C[C@H](N)CN(c2nc(Nc3ccc(NC(=O)c4cc5cccc(O)c5cc4O)cc3)nc(N3C[C@H](N)C[C@H](N)C3)n2)C1` [N-{4-[(3,5-dihydroxy-naphthalene-2-carbonyl)-amino]-phenyl}-4,6-Bis-((3R,5S)-3,5-diamino-piperidin-1-yl)-[1,3,5]triazine-2-amine] it was less than 64 µg/mL; in that of `COc1cc(NC(=O)CC(=O)c2ccc(Nc3nc(N4C[C@H](N)C[C@H](N)C4)nc(N4C[C@H](N)C[C@H](N)C4)n3)cc2)cc(OC)c1OC` [N-{4-[2-(3,4,5-trimethoxy-phenylcarbamoyl)-acetyl]-phenyl}-4,6-Bis-((3R,5S)-3,5-diamino-piperidin-1-yl)-[1,3,5]triazine-2-amine], more than 64 µg/mL; in that of `Cc1ccc(S(=O)(=O)N(C)C)cc1Nc1nc(N2C[C@H](N)C[C@H](N)C2)nc(N2C[C@H](N)C[C@H](N)C2)n1` [N-(5-dimethylsulfamoyl-2-methyl-phenyl)-4,6-Bis-((3R,5S)-3,5-diamino-piperidin-1-yl)-[1,3,5]triazine-2-amine], more than 64 µg/mL.
Take `COc1cnc(NS(=O)(=O)c2ccc(Nc3nc(N4C[C@H](N)C[C@H](N)C4)nc(N4C[C@H](N)C[C@H](N)C4)n3)cc2)nc1` [N-{4-(5-methoxy-pyrimidin-2-ylsulfamoyl)-phenyl]-4,6-Bis-((3R,5S)-3,5-diamino-piperidin-1-yl)-[1,3,5]triazine-2-amine]: the MIC was more than 64 µg/mL.
In the case of `COc1nc(Nc2ccc(C(=O)Oc3ccccc3)c(O)c2)nc(N2CCCCC2)n1.Cl` [4-[4-((3R,5S)-3,5-Diamino-piperidin-1-yl)-6-methoxy-[1,3,5]triazin-2-ylamino]-2-hydroxy-benzoic acidphenylester], the MIC was less than 16 µg/mL.
Take `CCOc1ccc(C(=O)Nc2ccc(Nc3nc(N4CCCCC4)nc(N4CCCCC4)n3)cc2O)cc1.Cl` [N-[4-(4-ethoxy-benzoylamino)-3-hydroxy-phenyl]-4,6-Bis-((3R,5S)-3,5-diamino-piperidin-1-yl)-1,3,5]triazine-2-amine]: the MIC was less than 16 µg/mL.
Still for that read-out and setting: the same measure for `Cl.N[C@@H]1C[C@H](N)CN(c2nc(Nc3cccc(C(F)(F)F)c3)nc(N3C[C@H](N)C[C@H](N)C3)n2)C1` [N-(3-trifluoromethyl-phenyl)-4,6-Bis-((3R,5S)-3,5-diamino-piperidin-1-yl)-[1,3,5]triazine-2-amine]: less than 64 µg/mL.

The test is the same for the next values; noted with them: Escherichia coli, 18 h, read-out: Potency (MIC).
Turning to `N[C@@H]1C[C@H](N)CN(c2nc(Nc3ccc(C(=O)CC(=O)Nc4ccc5c(c4)OC(F)(F)O5)cc3)nc(N3C[C@@H](N)C[C@H]3CO)n2)C1` [3-{4-[4-((2S,4S)-4-Amino-2-hydroxymethyl-pyrrolidin-1-yl)-6-((3R,5S)-3,5-diamino-piperidin-1-yl)-[1,3,5]triazin-2-ylamino]-phenyl}-N-(2,2-difluoro-benzo[1,3]dioxol-5-yl)-3-oxo-propionamide], the MIC is less than 16 µg/mL.
Take `CNC(=S)NNc1nc(N2C[C@H](N)C[C@H](N)C2)nc(N2C[C@H](N)C[C@H](N)C2)n1` [N-(3-methyl-thioureido)-4,6-Bis-((3R,5S)-3,5-diamino-piperidin-1-yl)-[1,3,5]triazine-2-amine]: the MIC was more than 64 µg/mL.
As for `N[C@@H]1C[C@H](N)CN(c2nc(Nc3ccc(NC(=O)c4ncccc4O)cc3)nc(N3C[C@H](N)C[C@H](N)C3)n2)C1` [N-{4-[(3-hydroxy-pyridine-2-carbonyl)-amino]-phenyl}-4,6-Bis-((3R,5S)-3,5-diamino-piperidin-1-yl)-[1,3,5]triazine-2-amine], the MIC is less than 64 µg/mL.
On the same count and under the same terms, in the case of `N[C@@H]1C[C@H](N)CN(c2nc(Nc3ccc4c(c3)Cc3ccccc3-4)nc(N3C[C@H](N)C[C@H](N)C3)n2)C1` [N-(9H-fluoren-2-yl)-4,6-Bis-((3R,5S)-3,5-diamino-piperidin-1-yl)-[1,3,5]triazine-2-amine] it was less than 16 µg/mL; in that of `COc1ccc(NC(=O)c2cccc(C)c2O)c(Nc2nc(N3C[C@H](N)C[C@H](N)C3)nc(N3C[C@H](N)C[C@H](N)C3)n2)c1` [N-[2-(2-hydroxy-3-methyl-benzoylamino)-5-methoxy-phenyl]-4,6-Bis-((3R,5S)-3,5-diamino-piperidin-1-yl)-[1,3,5]triazine-2-amine], more than 64 µg/mL.
Consider `N[C@@H]1C[C@H](N)CN(c2nc(Nc3ccc(NC(=O)c4ccc(F)cc4O)cc3)nc(N3C[C@H](N)C[C@H](N)C3)n2)C1` [N-[4-(4-fluoro-2-hydroxy-benzoylamino)-phenyl]-4,6-Bis-((3R,5S)-3,5-diamino-piperidin-1-yl)-[1,3,5]triazine-2-amine], for which the minimum inhibitory concentration (MIC) is less than 16 µg/mL.
In the case of `N[C@@H]1C[C@H](N)CN(c2nc(Nc3ccc(NC(=O)c4cccnc4O)c(O)c3)nc(N3C[C@H](N)C[C@H](N)C3)n2)C1` [N-{3-hydroxy-4-[(2-hydroxy-pyridine-3-carbonyl)-amino]-phenyl}-4,6-Bis-((3R,5S)-3,5-diamino-piperidin-1-yl)-[1,3,5]triazine-2-amine], the MIC was less than 16 µg/mL.
Still for that read-out and setting: in the case of `N[C@@H]1C[C@H](N)CN(c2nc(Nc3cccc(NC(=O)c4cccc(O)c4O)c3)nc(N3C[C@H](N)C[C@H](N)C3)n2)C1` [N-[3-(2,3-dihydroxy-benzoylamino)-phenyl]-4,6-Bis-((3R,5S)-3,5-diamino-piperidin-1-yl)-[1,3,5]triazine-2-amine] it was less than 16 µg/mL; in that of `N[C@@H]1C[C@H](N)CN(c2nc(Nc3ccc(NC(=O)c4ccc(Cl)cc4)c(O)c3)nc(N3C[C@@H](N)C[C@H]3CO)n2)C1` [N-{4-[4-((2S,4S)-4-Amino-2-hydroxymethyl-pyrrolidin-1-yl)-6-((3R,5S)-3,5-diamino-piperidin-1-yl)-[1,3,5]triazin-2-ylamino]-2-hydroxy-phenyl}-4-chloro-benzamide], less than 64 µg/mL; in that of `CCCCCCCCCC(=O)Nc1ccc(Nc2nc(N3C[C@H](N)C[C@H](N)C3)nc(N3C[C@H](N)C[C@H](N)C3)n2)cc1O` [N-(4-decanoylamino-3-hydroxy-phenyl)-4,6-Bis-((3R,5S)-3,5-diamino-piperidin-1-yl)-[1,3,5]triazine-2-amine], less than 16 µg/mL.
As for `N[C@@H]1C[C@H](N)CN(c2nc(Nc3ccc(C(=O)Nc4ccc(F)cc4)c(O)c3)nc(N3C[C@H](N)C[C@H](N)C3)n2)C1` [N-[4-(4-fluoro-phenylcarbamoyl)-3-hydroxy-phenyl]-4,6-Bis-((3R,5S)-3,5-diamino-piperidin-1-yl)-[1,3,5]triazine-2-amine], the MIC is less than 16 µg/mL.
The same measure, in the same setting: in the case of `N[C@@H]1C[C@H](N)CN(c2nc(Nc3ccc(NC(=O)c4ccc(N5Cc6ccccc6C5)cc4O)c(O)c3)nc(N3C[C@H](N)C[C@H](N)C3)n2)C1` [N-{4-[4-(1,3-dihydro-isoindol-2-yl)-2-hydroxy-benzoylamino]-3-hydroxy-phenyl}-4,6-Bis-((3R,5S)-3,5-diamino-piperidin-1-yl)-[1,3,5]triazine-2-amine] it was less than 64 µg/mL; in that of `Cc1ccc(S(=O)(=O)N(Cc2ccccc2)c2ccc(Nc3nc(N4C[C@H](N)C[C@H](N)C4)nc(N4C[C@H](O)C[C@@H](O)C4)n3)cc2O)cc1` [N-Benzyl-N-{4-[4-((3R,5S)-3,5-diamino-piperidin-1-yl)-6-((3R,5R)-3,5-dihydroxy-piperidin-1-yl)-[1,3,5]triazin-2-ylamino]-2-hydroxy-phenyl}-4-methyl-benzenesulfonamide], less than 64 µg/mL; in that of `NC[C@@H]1C[C@H](N)CN1c1nc(Nc2ccc(NC(=O)c3ccc4ccccc4c3O)cc2)nc(N2C[C@H](N)C[C@H](N)C2)n1` [1-Hydroxy-naphthalene-2-carboxylic acid {4-[4-((2S,4S)-4-amino-2-aminomethyl-pyrrolidin-1-yl)-6-((3R,5S)-3,5-diamino-piperidin-1-yl)-[1,3,5]triazine-2-ylamino]-phenyl}-amide], less than 16 µg/mL.
On the same count and under the same terms, the same measure for `N[C@@H]1C[C@H](N)CN(c2nc(Nc3ccc(NC(=O)c4ccc(Cl)cc4O)cc3)nc(N3C[C@H](N)C[C@H](N)C3)n2)C1` [N-[4-(4-chloro-2-hydroxy-benzoylamino)-phenyl]-4,6-Bis-((3R,5S)-3,5-diamino-piperidin-1-yl)-[1,3,5]triazine-2-amine]: less than 16 µg/mL; for `N[C@@H]1C[C@H](N)CN(c2nc(Nc3ccc(C(=O)CC(=O)Nc4ccccc4C(F)(F)F)cc3)nc(N3C[C@H](N)C[C@H](N)C3)n2)C1` [N-{4-[2-(2-trifluoromethyl-phenylcarbamoyl)-acetyl]-phenyl}-4,6-Bis-((3R,5S)-3,5-diamino-piperidin-1-yl)-[1,3,5]triazine-2-amine]: less than 64 µg/mL.

Still in this test, the particulars now being: MIC in E. coli or S. aureus; two-fold serial dilutions 64 to 0.5 μg/ml in duplicate; 18 hours of incubation at 35° C.
With `NC[C@@H]1CN(c2nc(Nc3ccc(C(=O)Oc4ccccc4)c(O)c3)nc(N3C[C@H](N)C[C@H](N)C3)n2)CC[C@@H]1O` [4-[4-((3R,4S)-3-Aminomethyl-4-hydroxy-piperidin-1-yl)-6-((3R,5S)-3,5-diamino-piperidin-1-yl)-[1,3,5]triazin-2-ylamino]-2-hydroxy-benzoic acidphenylester], the “Potency (MIC)” value is listed as “− (− means MIC>64 μg/ml in E. coli or S. aureus)”.
